According to PubChem BioAssay (NCI):
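In this assay, cells in 96-well plates receive the compound at five concentrations for 48 hours. Endpoints are linearly interpolated between the surrounding concentrations. Abbreviation: GI50, concentration required for 50% inhibition of growth. TGI: concentration producing complete growth inhibition.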

Tests used:
Experiment in all cases: growth of human tumour cells (NCI), 48 h
K-562 leukemia = system: K-562 leukemia
SF-268 CNS = system: SF-268 CNS
OVCAR-8 ovarian = system: OVCAR-8 ovarian
IGROV1 ovarian = system: IGROV1 ovarian
SK-MEL-5 melanoma = system: SK-MEL-5 melanoma
RXF 393 renal = system: RXF 393 renal
RPMI-8226 leukemia = system: RPMI-8226 leukemia
SN12C renal = system: SN12C renal
NCI-H23 lung = system: NCI-H23 lung
MDA-MB-435 = system: MDA-MB-435
KM12 colon = system: KM12 colon
TK-10 renal = system: TK-10 renal
UO-31 renal = system: UO-31 renal
CCRF-CEM leukemia = system: CCRF-CEM leukemia
DU-145 prostate = system: DU-145 prostate
PC-3 prostate = system: PC-3 prostate
SK-OV-3 ovarian = system: SK-OV-3 ovarian
CAKI-1 renal = system: CAKI-1 renal
HCT-15 colon = system: HCT-15 colon
UACC-62 melanoma = system: UACC-62 melanoma
BT-549 breast = system: BT-549 breast
NCI-H226 lung = system: NCI-H226 lung
HT29 colon = system: HT29 colon
A498 renal = system: A498 renal
SNB-75 CNS = system: SNB-75 CNS
SK-MEL-2 melanoma = system: SK-MEL-2 melanoma
MALME-3M melanoma = system: MALME-3M melanoma
M14 melanoma = system: M14 melanoma
SW-620 colon = system: SW-620 colon
LOX IMVI melanoma = system: LOX IMVI melanoma
EKVX NSCLC = system: EKVX NSCLC
SNB-19 CNS = system: SNB-19 CNS
HL-60(TB) leukemia = system: HL-60(TB) leukemia
NCI-H460 lung = system: NCI-H460 lung
UACC-257 melanoma = system: UACC-257 melanoma
786-0 renal = system: 786-0 renal
HCC-2998 colon = system: HCC-2998 colon
COLO 205 colon = system: COLO 205 colon
SR leukemia = system: SR leukemia
MCF7 breast = system: MCF7 breast
MOLT-4 leukemia = system: MOLT-4 leukemia
OVCAR-3 ovarian = system: OVCAR-3 ovarian
NCI/ADR-RES ovarian = system: NCI/ADR-RES ovarian
U251 CNS = system: U251 CNS
HS 578T breast = system: HS 578T breast
OVCAR-4 ovarian = system: OVCAR-4 ovarian
A549 NSCLC = system: A549 NSCLC
HOP-62 NSCLC = system: HOP-62 NSCLC
SF-295 CNS = system: SF-295 CNS
MDA-MB-231 breast = system: MDA-MB-231 breast
HOP-92 NSCLC = system: HOP-92 NSCLC
HCT-116 colon = system: HCT-116 colon
NCI-H522 lung = system: NCI-H522 lung
T-47D breast = system: T-47D breast

CC(C)[C@H]1COC(=O)N1[C@@H]1C(=O)N([C@@H](CCC(=O)N2CCN(C3CCCC3)CC2)C(=O)N[C@@H]2CCCc3ccccc32)[C@@H]1/C=C/c1cccc(Br)c1
GI50 (K-562 leukemia): 2170 nM
TGI (K-562 leukemia): 4.95 µM
GI50 (SF-268 CNS): 1110 nM
TGI (SF-268 CNS): 2830 nM
GI50 (OVCAR-8 ovarian): 4.12 µM
TGI (OVCAR-8 ovarian): 15.4 µM
GI50 (IGROV1 ovarian): 1830 nM
TGI (IGROV1 ovarian): 5.9 µM
GI50 (SK-MEL-5 melanoma): 1510 nM
TGI (SK-MEL-5 melanoma): 2840 nM
GI50 (RXF 393 renal): 1590 nM
TGI (RXF 393 renal): 3.47 µM
GI50 (RPMI-8226 leukemia): 1470 nM
TGI (RPMI-8226 leukemia): 3.93 µM
GI50 (SN12C renal): 2270 nM
TGI (SN12C renal): 5.51 µM
GI50 (NCI-H23 lung): 3.46 µM
TGI (NCI-H23 lung): 16.6 µM
GI50 (MDA-MB-435): 1260 nM
TGI (MDA-MB-435): 2650 nM
GI50 (KM12 colon): 2170 nM
TGI (KM12 colon): 5.83 µM
GI50 (TK-10 renal): 1460 nM
TGI (TK-10 renal): 3.47 µM
GI50 (UO-31 renal): 1490 nM
TGI (UO-31 renal): 3.04 µM
GI50 (CCRF-CEM leukemia): 2910 nM
TGI (CCRF-CEM leukemia): 8.4 µM
GI50 (DU-145 prostate): 1520 nM
TGI (DU-145 prostate): 7.57 µM
GI50 (PC-3 prostate): 1800 nM
TGI (PC-3 prostate): 4.28 µM
GI50 (SK-OV-3 ovarian): 2820 nM
TGI (SK-OV-3 ovarian): 8.21 µM
GI50 (CAKI-1 renal): 1880 nM
TGI (CAKI-1 renal): 4.01 µM
GI50 (HCT-15 colon): 1690 nM
TGI (HCT-15 colon): 3.63 µM
GI50 (UACC-62 melanoma): 1800 nM
TGI (UACC-62 melanoma): 3.58 µM
GI50 (BT-549 breast): 1460 nM
TGI (BT-549 breast): 3.11 µM
GI50 (NCI-H226 lung): 3.49 µM
TGI (NCI-H226 lung): 15.6 µM
GI50 (HT29 colon): 1300 nM
TGI (HT29 colon): 2770 nM
GI50 (A498 renal): 1400 nM
TGI (A498 renal): 4.04 µM
GI50 (SNB-75 CNS): 1360 nM
TGI (SNB-75 CNS): 3.91 µM
GI50 (SK-MEL-2 melanoma): 1690 nM
TGI (SK-MEL-2 melanoma): 3.3 µM
GI50 (MALME-3M melanoma): 1620 nM
TGI (MALME-3M melanoma): 3.26 µM
GI50 (M14 melanoma): 1800 nM
TGI (M14 melanoma): 3.46 µM
GI50 (SW-620 colon): 1950 nM
TGI (SW-620 colon): 4.57 µM
GI50 (LOX IMVI melanoma): 376 nM
TGI (LOX IMVI melanoma): 1550 nM
GI50 (EKVX NSCLC): 3.01 µM
TGI (EKVX NSCLC): 15.2 µM
GI50 (SNB-19 CNS): 2770 nM
TGI (SNB-19 CNS): 14.5 µM
GI50 (HL-60(TB) leukemia): 1910 nM
TGI (HL-60(TB) leukemia): 4.9 µM
GI50 (NCI-H460 lung): 1690 nM
TGI (NCI-H460 lung): 3.62 µM
GI50 (UACC-257 melanoma): 1630 nM
TGI (UACC-257 melanoma): 3.44 µM
GI50 (786-0 renal): 2010 nM
TGI (786-0 renal): 4.69 µM
GI50 (HCC-2998 colon): 1830 nM
TGI (HCC-2998 colon): 3.63 µM
GI50 (COLO 205 colon): 1500 nM
TGI (COLO 205 colon): 3.11 µM
GI50 (SR leukemia): 1870 nM
TGI (SR leukemia): 4.71 µM
GI50 (MCF7 breast): 2090 nM
TGI (MCF7 breast): 6.33 µM
GI50 (MOLT-4 leukemia): 1450 nM
TGI (MOLT-4 leukemia): 7.39 µM
GI50 (OVCAR-3 ovarian): 1970 nM
TGI (OVCAR-3 ovarian): 3.92 µM
GI50 (NCI/ADR-RES ovarian): 2980 nM
TGI (NCI/ADR-RES ovarian): 11.8 µM
GI50 (U251 CNS): 1900 nM
TGI (U251 CNS): 3.51 µM
GI50 (HS 578T breast): 2500 nM
TGI (HS 578T breast): 9.31 µM
GI50 (OVCAR-4 ovarian): 2790 nM
TGI (OVCAR-4 ovarian): 15 µM
GI50 (A549 NSCLC): 3.05 µM
TGI (A549 NSCLC): 11.5 µM
GI50 (HOP-62 NSCLC): 1820 nM
TGI (HOP-62 NSCLC): 4.96 µM
GI50 (SF-295 CNS): 2150 nM
TGI (SF-295 CNS): 5.05 µM
GI50 (MDA-MB-231 breast): 1860 nM
TGI (MDA-MB-231 breast): 3.77 µM
GI50 (HOP-92 NSCLC): 1500 nM
TGI (HOP-92 NSCLC): 4.21 µM
GI50 (HCT-116 colon): 1570 nM
TGI (HCT-116 colon): 2990 nM
GI50 (NCI-H522 lung): 1750 nM
TGI (NCI-H522 lung): 3.51 µM
GI50 (T-47D breast): 2260 nM
